Patent publication US20260159499A1, “COMPOUND AS FAK INHIBITOR AND USE THEREOF” (WIGEN BIOMEDICINE TECHNOLOGY (SHANGHAI) CO., LTD., priority 2021, published 2026)

What was measured:
PC3 cells [1] = assay: PC3 cell proliferation, 2D activity detection; assay type: cell-based, human; settings: Homo sapiens, PC-3; PC3, 2D, 72 h, class symbol; read-out: 2D IC50 against PC3 cells
Description: 2D activity detection: 1200 PC3 cells were seeded in a 96-well plate. After overnight adherence culture, the compound serially diluted was added. 72 h after addition, Cell Titer-Lumi (Beyotime C0068XL) was added to measure the ATP content in the cells. The growth of the cells was evaluated, and IC50 of the compounds against cell growth was calculated.

FAK recombinant protein = FAK recombinant protein (Homo sapiens, UniProt Q05397); assay: Inhibitory activity against FAK enzyme; assay type: biochemical; settings: TK substrate, ATP
Description: The compound serially diluted with DMSO and a FAK recombinant protein were mixed, and the mixture was left to stand at room temperature for 10 min. A biotin-labeled TK substrate (TK) and ATP were then added. […] After the mixture was incubated at room temperature for 1 h, the fluorescence intensity at 615 nm and 665 nm was measured. The ratio of the fluorescence intensity at 665 nm and 615 nm was calculated. The inhibition percentages and IC50 of the compounds were calculated compared to the DMSO control group.

PC3 cells [2] = assay: PC3 cell proliferation, 3D activity detection; assay type: cell-based, human; settings: Homo sapiens, PC-3, 336 h; PC3, 3D culture, 14 days, class symbol; read-out: 3D IC50 against PC3 cells
Description: 3D activity detection: PC3 cells were seeded in a 96-well plate at 1200 cells/well, and 3D culture was performed. 14 days after the compound serially diluted was added, the growth of the cells was determined. The inhibition percentage and IC50 of the compound were calculated compared to the DMSO control group.

Chain of FAK recombinant protein (Q05397 whole entry, species assumed): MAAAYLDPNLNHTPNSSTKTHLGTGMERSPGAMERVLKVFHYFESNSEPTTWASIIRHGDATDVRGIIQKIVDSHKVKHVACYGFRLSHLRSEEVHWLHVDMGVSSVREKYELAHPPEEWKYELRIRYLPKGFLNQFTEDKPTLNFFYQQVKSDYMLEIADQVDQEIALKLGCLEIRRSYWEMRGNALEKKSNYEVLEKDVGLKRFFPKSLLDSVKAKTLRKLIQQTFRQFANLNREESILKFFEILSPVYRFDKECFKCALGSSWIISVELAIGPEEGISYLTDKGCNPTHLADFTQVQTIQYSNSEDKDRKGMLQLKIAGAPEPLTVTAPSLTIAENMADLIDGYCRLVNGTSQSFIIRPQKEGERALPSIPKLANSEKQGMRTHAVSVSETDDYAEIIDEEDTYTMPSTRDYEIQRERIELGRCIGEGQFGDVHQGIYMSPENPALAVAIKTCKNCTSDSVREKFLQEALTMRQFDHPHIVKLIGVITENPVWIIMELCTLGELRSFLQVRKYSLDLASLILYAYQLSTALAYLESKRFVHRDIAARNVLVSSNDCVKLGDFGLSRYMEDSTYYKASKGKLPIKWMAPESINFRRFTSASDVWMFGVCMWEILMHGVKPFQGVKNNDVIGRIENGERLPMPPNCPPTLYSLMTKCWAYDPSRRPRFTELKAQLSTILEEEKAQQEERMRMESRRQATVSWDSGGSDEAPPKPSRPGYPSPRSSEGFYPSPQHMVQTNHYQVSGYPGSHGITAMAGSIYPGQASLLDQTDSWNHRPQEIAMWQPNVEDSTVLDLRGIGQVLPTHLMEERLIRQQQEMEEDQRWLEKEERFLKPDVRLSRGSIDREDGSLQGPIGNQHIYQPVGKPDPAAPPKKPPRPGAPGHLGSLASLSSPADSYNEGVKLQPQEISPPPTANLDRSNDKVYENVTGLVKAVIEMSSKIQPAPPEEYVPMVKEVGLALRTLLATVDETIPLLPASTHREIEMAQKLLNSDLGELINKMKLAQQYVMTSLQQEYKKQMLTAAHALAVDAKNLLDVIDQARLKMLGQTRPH

Compound | IC50 (PC3 cells [1]) | IC50 (FAK recombinant protein) | IC50 (PC3 cells [2])
COc1cc(N2CCC3(CC2)CN(C)C3)ccc1Nc1ncc(Cl)c(Oc2cccc3c2C(=O)N(C)C3)n1 [Compound 116] | > 2000 nM | < 10 nM | < 5 nM
COc1cc(C(=O)NC2CC3(CCN(C)CC3)C2)ccc1Nc1ncc(C(F)(F)F)c(Oc2cccc3c2C(=O)N(C)C3(C)C)n1 [Compound 78] | > 2000 nM | < 10 nM | 5 to 50 nM
COc1cc(C(=O)NC2CC3(CCN(C)CC3)C2)c(F)cc1Nc1ncc(C(F)(F)F)c(Oc2ccccc2N(C)S(C)(=O)=O)n1 [Compound 10] | > 2000 nM | < 10 nM | < 5 nM
COc1cc(C(=O)NC2CC3(CCN(C)CC3)C2)ccc1Nc1ncc(C(F)(F)F)c(Oc2cccc3c2C(=O)N(OC)C3)n1 [Compound 81] | > 2000 nM | < 10 nM | < 5 nM
COc1cc(C2=NOC3(CCN(C)CC3)C2)ccc1Nc1ncc(C(F)(F)F)c(Oc2cccc3c2C(=O)N(C)C3)n1 [Compound 68] | > 2000 nM | 10 to 50 nM | 5 to 50 nM
COc1cc(C(=O)NC2CC3(CCN(C)CC3)C2)ccc1Nc1ncc(C(F)(F)F)c(Cc2cccc3c2C(=O)N(C)C3)n1 [Compound 57] | > 2000 nM | < 10 nM | < 5 nM
COc1cc(N2CC3(CCN(C4CCC4)CC3)C2)ccc1Nc1ncc(C(F)(F)F)c(Oc2cccc3c2C(=O)N(C)C3)n1 [Compound 105] | > 2000 nM | < 10 nM | < 5 nM
COc1cc(C(=O)NC2CC3(CCN(C)CC3)C2)ccc1Nc1ncc(C(F)(F)F)c(Oc2cccc3c2C(=O)CC3)n1 [Compound 83] | > 2000 nM | < 10 nM | 5 to 50 nM
COc1cc(C(=O)NC2CCC3(CC2)CCN(C)CC3)c(F)cc1Nc1ncc(C(F)(F)F)c(Oc2ccccc2N(C)S(C)(=O)=O)n1 [Compound 16] | > 2000 nM | 10 to 50 nM | 5 to 50 nM
COc1cc(C(=O)NC2CCC3(CC2)CN(C)C3)c(Cl)cc1Nc1ncc(C(F)(F)F)c(Cc2cccc3c2C(=O)N(C)C3)n1 [Compound 56] | > 2000 nM | < 10 nM | 5 to 50 nM
COc1cc(N2CC3(CCN(CC4CC4)CC3)C2)ccc1Nc1ncc(C(F)(F)F)c(Oc2cccc3c2C(=O)N(C)C3)n1 [Compound 106] | > 2000 nM | < 10 nM | < 5 nM
COc1cc(N2CCC3(CCN(C)CC3)C2)ccc1Nc1ncc(C(F)(F)F)c(Oc2cccc3c2C(=O)N(C)C3)n1 [Compound 96] | > 2000 nM | < 10 nM | < 5 nM
COc1cc(C(=O)NC2CC3(CCN(C)CC3)C2)c(Cl)cc1Nc1ncc(C(F)(F)F)c(Cc2cccc3c2C(=O)N(C)C3)n1 [Compound 55] | > 2000 nM | < 10 nM | < 5 nM
COc1cc(C(=O)NC2CC3(CCN(C)CC3)CO2)c(F)cc1Nc1ncc(C(F)(F)F)c(Oc2ccccc2N(C)S(C)(=O)=O)n1 (stereo not drawn) [Compound 12] | > 2000 nM | < 10 nM | < 5 nM
COc1cc(C(=O)NC2CCC3(CC2)CN(C)C3)ccc1Nc1ncc(C(F)(F)F)c(Oc2cccc3c2C(=O)N(C)C3C)n1 (stereo not drawn) [Compound 73] | > 2000 nM | < 10 nM | 5 to 50 nM
COc1cc(C(=O)NC2CC3(CCN(C)CC3)C2)ccc1Nc1ncc(C(F)(F)F)c(Cc2cccc3c2C(=O)N(C)C3C)n1 (stereo not drawn) [Compound 75] | > 2000 nM | < 10 nM | 5 to 50 nM
COc1cc(C(=O)NC2CC3(CCN(C)C3)CO2)c(F)cc1Nc1ncc(C(F)(F)F)c(Oc2ccccc2N(C)S(C)(=O)=O)n1 (stereo not drawn) [Compound 14] | > 2000 nM | < 10 nM | < 5 nM
CCN1CCC2(CC1)CN(c1ccc(Nc3ncc(C(F)(F)F)c(Oc4cccc5c4C(=O)N(C)C5)n3)c(OC)c1)C2 [Compound 103] | > 2000 nM | < 10 nM | < 5 nM
COc1cc(C(=O)NC2COC3(CCN(C)C3)C2)c(F)cc1Nc1ncc(C(F)(F)F)c(Oc2ccccc2N(C)S(C)(=O)=O)n1 (stereo not drawn) [Compound 15] | > 2000 nM | < 10 nM | < 5 nM
COc1cc(N2CCC3(CC2)CN(C)C3)ccc1Nc1ncc(Br)c(Oc2cccc3c2C(=O)N(C)C3)n1 [Compound 117] | > 2000 nM | < 10 nM | < 5 nM
COc1cc(C(=O)NC2CCC3(CC2)CN(C)C3)ccc1Nc1ncc(C(F)(F)F)c(Cc2cccc3c2C(=O)N(C)C3)n1 [Compound 58] | > 2000 nM | < 10 nM | 5 to 50 nM
COc1cc(C(=O)NC2CC3(CCN(C)CC3)C2)c(F)cc1Nc1ncc(C(F)(F)F)c(Cc2cccc3c2C(=O)N(C)C3C)n1 (stereo not drawn) [Compound 74, 4-((4-((1,2-dimethyl-3-oxoisoindol-4-yl)methyl)-5-(trifluoromethyl)pyrimidin-2-yl)amino)-2-fluoro-5-methoxy-N-(7-methyl-7-azaspiro[3.5]nonan-2-yl)benzamide] | > 2000 nM | < 10 nM | 5 to 50 nM
COc1cc(N2CCC23CCN(C)CC3)ccc1Nc1ncc(C(F)(F)F)c(Oc2cccc3c2C(=O)N(C)C3)n1 [Compound 97] | > 2000 nM | < 10 nM | < 5 nM
COc1cc(N2CCC3(CCN(C)C3)C2)ccc1Nc1ncc(C(F)(F)F)c(Oc2cccc3c2C(=O)N(C)C3)n1 (stereo not drawn) [Compound 98] | > 2000 nM | < 10 nM | < 5 nM
CNC(=O)c1ccccc1Oc1nc(Nc2cc(F)c(C(=O)NC3CCC4(CC3)CN(C)C4)cc2OC)ncc1C(F)(F)F [Compound 2] | > 2000 nM | < 10 nM | 5 to 50 nM
CNC(=O)c1ccccc1Oc1nc(Nc2cc(F)c(C(=O)NC3CC4(CCN(C)C4)CO3)cc2OC)ncc1C(F)(F)F (stereo not drawn) [Compound 5] | > 2000 nM | < 10 nM | 5 to 50 nM
COc1cc(C(=O)NC2CC3(CCN(C)CC3)C2)ccc1Nc1ncc(C(F)(F)F)c(Oc2cccc3c2C(=O)N(C)C3C)n1 (stereo not drawn) [Compound 72] | > 2000 nM | < 10 nM | < 5 nM

More lines, now with the values ahead:

IC50 (PC3 cells [1]) | IC50 (FAK recombinant protein) | IC50 (PC3 cells [2]) | Compound
> 2000 nM | < 10 nM | 5 to 50 nM | COc1cc(C(=O)NC2CCC3(CC2)CCN(C)CC3)c(F)cc1Nc1ncc(C(F)(F)F)c(Oc2cccc3c2C(=O)N(C)C3)n1 [Compound 26]
> 2000 nM | < 10 nM | 5 to 50 nM | COc1cc(C(=O)NC2CCN3CCN=C3C2)c(F)cc1Nc1ncc(C(F)(F)F)c(Oc2cccc3c2C(=O)N(C)C3)n1 (stereo not drawn) [Compound 31]
> 2000 nM | < 10 nM | 5 to 50 nM | COc1cc(C(=O)NC2CCC3(CCN(C)CC3)C2)c(F)cc1Nc1ncc(C(F)(F)F)c(Oc2cccc3c2C(=O)N(C)C3)n1 (stereo not drawn) [Compound 24]
> 2000 nM | 10 to 50 nM | 5 to 50 nM | COc1cc(N2CC3(CCN(C)CC3)OC2=O)c(F)cc1Nc1ncc(C(F)(F)F)c(Oc2cccc3c2C(=O)N(C)C3)n1 [Compound 63]
> 2000 nM | 10 to 50 nM | 5 to 50 nM | COc1cc(C(=O)NC2CC3(CCN(C)CC3)C2)c(-c2cnn(C)c2)cc1Nc1ncc(C(F)(F)F)c(Oc2cccc3c2C(=O)N(C)C3)n1 [Compound 88]
> 2000 nM | < 10 nM | 5 to 50 nM | COc1cc(N2CCC3(CCN(C)CC3)C2=O)c(F)cc1Nc1ncc(C(F)(F)F)c(Oc2cccc3c2C(=O)N(C)C3)n1 [Compound 61, 2-(2-fluoro-5-methoxy-4-((4-((2-methyl-3-oxoisoindol-4-yl)oxy)-5-(trifluoromethyl)pyrimidin-2-yl)amino)phenyl)-8-methyl-2,8-diazaspiro[4.5]decan-1-one]
> 2000 nM | 10 to 50 nM | 5 to 50 nM | COc1cc(C(=O)NC2CCC3(CC2)CCN(C)CC3)c(F)cc1Nc1ncc(C(F)(F)F)c(Cc2cccc3c2C(=O)N(C)C3)n1 [Compound 54]
> 2000 nM | < 10 nM | < 5 nM | COc1cc(C(=O)NC2CC3(CCN(C)CC3)C2)c(Cl)cc1Nc1ncc(C(F)(F)F)c(Oc2cccc3c2C(=O)N(C)C3)n1 [Compound 43]
> 2000 nM | < 10 nM | 5 to 50 nM | COc1cc(C(=O)NC2CCn3ccnc3C2)c(F)cc1Nc1ncc(C(F)(F)F)c(Oc2cccc3c2C(=O)N(C)C3)n1 (stereo not drawn) [Compound 32]
> 2000 nM | < 10 nM | < 5 nM | CCN1CCC2(CC1)CC(NC(=O)c1cc(OC)c(Nc3ncc(C(F)(F)F)c(Oc4cccc5c4C(=O)N(C)C5)n3)cc1F)C2 [Compound 42]
> 2000 nM | < 10 nM | < 5 nM | [2H]C([2H])([2H])N1CCC2(CC1)CC(NC(=O)c1cc(OC)c(Nc3ncc(C(F)(F)F)c(Oc4cccc5c4C(=O)N(C)C5)n3)cc1F)C2 [Compound 47]
> 2000 nM | < 10 nM | 5 to 50 nM | COc1cc(C(=O)N2CCC3(CCCN(C)C3)C2)c(F)cc1Nc1ncc(C(F)(F)F)c(Oc2cccc3c2C(=O)N(C)C3)n1 (stereo not drawn) [Compound 40]
